Values of other authors, collected in US20040040468A1, “Drier for printing ink and printing ink containing drier” (DAINIPPON INK AND CHEMICALS, INC., priority 2002, published 2004).

Tested on: rat
Conditions: from database REGISTRY OF TOXIC EFFECTS OF CHEMICAL SUBSTANCES

Substance | LD50 (rat, oral administration)
Cobalt naphthenate | 3900 mg/kg
Manganese naphthenate | 6000 mg/kg
